The source of these data is paper PMC9960243, “Cytotoxic and Antileishmanial Effects of the Monoterpene β-Ocimene” (Pharmaceuticals, 2023).

SMILES strings stand for the structures.

Holding throughout (format): cell-based
Series [1] deals with Leishmania (Leishmania) amazonensis axenic amastigotes. Description: microbe, parasite or virus in culture. Particulars: Leishmania, 72 h. The protocol:
(§1) Strains of Leishmania (Leishmania) amazonensis (IFLA/BR/67/PH8) (promastigote form) were cultivated in Schneider’s insect medium (supplemented with 10% FBS, and 1% antibiotic solution), at 26 °C, and at pH 7, in a biological oxygen demand (BOD) incubator. To transform the promastigote forms into axenic amastigotes, the temperature was increased to 32 °C and the pH of the medium was adjusted to 5.5 [14].
(§2) Promastigote and axenic amastigote growth inhibition was tested as previously described by DIAS et al.. In a 96-well plate, parasites were seeded at 10^6 parasites per well in 100 μL of supplemented Schneider medium. The parasites were treated with differing concentrations of β-ocimene (1.56–12.5 μM), and reference drugs, meglumine antimoniate (500–40,000 μM) and amphotericin B (0.062–0.5 μM). The plates were incubated in a BOD incubator at 26 °C for 72 h. Afterwards, 10 µL of MTT (5 mg/mL) was added to each well, and the plate was incubated again for 4 h, when 50 µL of 10% SDS was added. Absorbances were then measured using an ELISA plate reader (BioSystems model ELx800, Curitiba, PR, Brazil) at 540 nm. The negative control consisted of Schneider medium with 0.5% DMSO and was considered as 0% inhibition.

For series [2], the system named is Leishmania (Leishmania) amazonensis promastigotes. As to the kind of experiment: microbe, parasite or virus in culture. The note with it: Leishmania, 72 h. The protocol:
as §1, §2

Series [3] in a line: Cytotoxic effect on mammalian cells (MTT, 72 h), RAW 264.7. The note with it: mouse, RAW 264.7 macrophages. As for the experimental part: RAW 264.7 lineage macrophages (available from the cell bank in Rio de Janeiro, Brazil) were used, grown in sterile bottles with DMEM medium, pH 7.2 containing 10% FBS and 1% penicillin 100 U/mL and streptomycin 100 μg/mL, and kept in an oven at 37 °C and 5% CO2.
In a 96-well plate, RAW 264.7 macrophages were plated at 10^5 cells per well in 100 μL of supplemented DMEM medium. The plate was incubated for 3 h at 37 °C and 5% CO2 for cell adhesion. Afterwards, to remove non-adhered cells, washing with PBS (phosphate-buffered saline solution) was performed. Furthermore, 100 μL of DMEM supplemented with β-ocimene (3.12–400 μM), and the reference drugs, meglumine antimoniate (250–2000 μM) and amphotericin B (0.062–0.5 μM) were then added to the wells, with oven incubation at 37 °C, and 5% CO2 for 72 h. Then, 10 μL of MTT (5 mg/mL) per well was then added, being kept for another 4 h in an oven at 37 °C and 5% CO2. The supernatant was removed, and 100 µL of DMSO was added to all wells. After 30 min of stirring, readings were taken at 540 nm. DMEM supplemented with 0.5% DMSO was used as a negative control and considered as 100% macrophage viability. The selectivity index for each treatment was calculated by dividing the CC50 by the IC50, or EC50 [32].

Where [4] appears, read: read-out: % Cytotoxicity Axenic Amastigotes.
[5] abbreviates: read-out: % Cytotoxicity Promastigotes.

Regarding `C=C/C(C)=C/CC=C(C)C` [β-ocimene, beta-3,7-dimethyl-1,3,6-octatriene], in series [1] (setting [4]), the cytotoxicity at 1.56 µM came out at 59.1 ± 2.4%, the cytotoxicity at 3.12 µM was 79.1 ± 3.7%, the cytotoxicity at 6.25 µM stood at 100% and the cytotoxicity at 12.5 µM was 100%. Further, the EC50 in series [1] (MTT) stood at 1120 ± 50 nM. Further, in series [2] (setting [5]), the cytotoxicity at 1.56 µM is 27.3 ± 2.16%, the cytotoxicity at 3.12 µM amounted to 70.2 ± 2.2%, the cytotoxicity at 6.25 µM was 81.4% and the cytotoxicity at 12.5 µM turned out to be 100%. For the same compound, in series [2] (MTT), the 50% inhibitory concentration (IC50) came out at 2780 ± 170 nM. The same compound yielded a cytotoxicity at 72 h, 50 µM in series [3] (pH 7.2, 50 µM) of 1.17 ± 0.09%. In series [3] (pH 7.2, 100 µM), this compound displayed a cytotoxicity at 72 h, 100 µM of 46.3 ± 4.11%. For the same compound, the cytotoxicity at 72 h, 200 µM in series [3] (pH 7.2, 200 µM) came out at 56.6 ± 5.92%. This compound returned a cytotoxicity at 72 h, 400 µM in series [3] (pH 7.2, 400 µM) of 81.7 ± 8.16%. Further, in series [3] (pH 7.2, MTT), the cytotoxic concentration (CC50) at 72 h amounted to 114000 ± 8200 nM.

In general, EC50 refers to the concentration that produces a half-maximal response. In general, IC50 refers to the midpoint of a concentration-inhibition curve. A higher IC50 goes with lower potency. One may read the CC50 as the concentration that lowers cell viability or growth by half. A lower CC50 goes with greater toxicity to the cells.
